We go through 21 compounds from ChEMBL document CHEMBL1201862, “PubChem BioAssay data set” (2004).

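48-hour exposure; five concentrations; linearly interpolated endpoints. Here, GI50 denotes the concentration required for 50% inhibition of growth.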 Activity calls are given as the source filed them. Rule as the data show it: active = GI50 up to about 1.1 µM and inactive = higher. Where only a bound is given, the exact number is not on record here.

Some test systems named below: M19-MEL; DLD-1; DMS-114; SNB-78; HOP-18; DMS-273; RXF 631; KM-20L2; XF498.
Assay in all cases: DTP human tumour cell line panel, 48 h

For the compound `O=C(CO)CC(=O)C(=O)Nc1ccccc1`, the GI50 in the assay with M19-MEL, in the assay on DLD-1, in the assay on DMS-114, with SNB-78, with HOP-18 and with DMS-273 was > 100 µM (inactive) throughout. The GI50 (in general, the concentration at which growth is held to half of that of the control) in the assay on RXF 631 was 46 µM (inactive); in the assay on KM-20L2 it was > 100 µM (inactive).
Take `CCCCCCCCCCCCCCCC(=O)OCC1OC(n2cc(F)c(=O)[nH]c2=O)C(NC(=O)OCc2ccccc2)C(O)C1O` (stereo not given): the GI50 with M19-MEL is 20.3 µM (inactive); in the assay on DMS-114, 14 µM (inactive); in the assay with SNB-78 it was 20.6 µM (inactive); in the assay on XF498 it was 16.3 µM (inactive); in the assay with HOP-18 it was 16.8 µM (inactive); in the assay with DMS-273 it was 16.8 µM (inactive). In addition, the GI50 with RXF 631 was 18.3 µM (inactive); in the assay on KM-20L2 it was 22.3 µM (inactive).
Take `CCOC(=O)C1(C)CCC(C(=O)OC)C1=O` (stereo not given): the GI50 in the assay on M19-MEL was 73.3 µM (inactive); in the assay on DLD-1 it was 57.4 µM (inactive); with DMS-114, 19.8 µM (inactive); in the assay with SNB-78, > 100 µM (inactive); with XF498, > 100 µM (inactive); with HOP-18 it was > 100 µM (inactive). Further, the GI50 in the assay with KM-20L2 was > 100 µM (inactive).
For `O=C1C2Cc3ccccc3CN2C(=O)N1CCN1CCCC1` (stereo not given), the GI50 with M19-MEL, in the assay with DLD-1, in the assay on DMS-114, in the assay on XF498, with DMS-273 and with RXF 631 was > 100 µM (inactive) in each case. The GI50 with KM-20L2 is > 100 µM (inactive).
Take `COc1cc(/C=C/C(=N\NC(=O)c2ccccc2)c2sc(Nc3ccc(Cl)c(Cl)c3)nc2C)ccc1O`: the GI50 in the assay on M19-MEL is 28.2 µM (inactive); with DLD-1, 28.7 µM (inactive); in the assay on DMS-114, 23.8 µM (inactive); in the assay on SNB-78, 29.3 µM (inactive); in the assay with XF498, 32.9 µM (inactive); with HOP-18, 24.1 µM (inactive). The GI50 was 20.6 µM (inactive) in the assay with RXF 631 and 33.4 µM (inactive) with KM-20L2.
Consider `O=c1/c(=C/c2ccc3c(c2)OCO3)sc2nnc(-c3ccco3)n12`, for which the GI50 in the assay with M19-MEL, with DLD-1, with DMS-114, with SNB-78, with XF498 and in the assay on HOP-18 was > 100 µM (inactive) throughout. For the same compound, the GI50 in the assay on DMS-273 and in the assay on KM-20L2 was > 100 µM (inactive) in each case.
With `Brc1ccc(-c2nnc(-c3nn(-c4ccccc4)c4nc5ccccc5nc34)o2)cc1`, the GI50 was > 100 µM (inactive) in the assay on DLD-1; 26.7 µM (inactive) with DMS-114; > 100 µM (inactive) in the assay with SNB-78; > 100 µM (inactive) in the assay on HOP-18; 81.3 µM (inactive) in the assay with DMS-273; > 100 µM (inactive) in the assay with RXF 631. Also, the GI50 in the assay with KM-20L2 was > 100 µM (inactive).
As to `CSc1nc(C)cc(=O)n1C1OC(COC(C)=O)C(OC(C)=O)C(OC(C)=O)C1OC(C)=O` (stereo not given), the GI50 with M19-MEL, in the assay on DLD-1, in the assay with DMS-114, in the assay with XF498, with DMS-273 and in the assay on KM-20L2 was > 100 µM (inactive) each time.
As to `C=CCCC(O)c1cc(C)c(O)c(C)c1` (stereo not given), the GI50 in the assay on M19-MEL, with DMS-114, in the assay on SNB-78, in the assay on HOP-18 and in the assay on KM-20L2 was > 100 µM (inactive) throughout.
In the case of `C[C@]12CC=CC(=O)[C@@]1(C)CCC(=O)C2`, the GI50 was > 100 µM (inactive) in the assay with M19-MEL; > 100 µM (inactive) in the assay with DLD-1; > 100 µM (inactive) in the assay with DMS-114; > 100 µM (inactive) with SNB-78; 75.7 µM (inactive) with XF498; > 100 µM (inactive) with DMS-273. In addition, the GI50 in the assay with RXF 631 is > 100 µM (inactive).
For `COc1ccc(C[P+]2(c3ccccc3)CCCCC2)cc1.O=[N+]([O-])c1ccc(C[P+]2(c3ccccc3)CCCCC2)cc1.[O-][Cl+3]([O-])([O-])[O-].[O-][Cl+3]([O-])([O-])[O-]`, the GI50 with DLD-1 was > 100 µM (inactive); in the assay with DMS-114 it was 36.1 µM (inactive); in the assay on XF498, > 100 µM (inactive); in the assay on HOP-18, 15.4 µM (inactive); with DMS-273, 60 µM (inactive); in the assay with RXF 631, > 100 µM (inactive).
Consider `Cc1n(-c2ccccc2)c2c([n+]1Cc1ccc([N+](=O)[O-])cc1)C(=O)c1ccccc1C2=O`, for which the GI50 in the assay with M19-MEL is 1.16 µM (inactive); in the assay with DLD-1, 5.43 µM (inactive); in the assay with DMS-114 it was 0.386 µM (active); in the assay with SNB-78 it was 2.88 µM (inactive); with HOP-18 it was 7.19 µM (inactive); in the assay with DMS-273, 1.92 µM (inactive). Also, in the assay on KM-20L2, the GI50 was 3.23 µM (inactive).
Regarding `Cc1nnc(N/N=C(/C(=O)C(C#N)c2ccc(Cl)cc2)C(C#N)c2ccc(Cl)cc2)n1N` (stereo not given), the GI50 in the assay with DLD-1 is 20.1 µM (inactive); in the assay on DMS-114, 15.7 µM (inactive); in the assay on SNB-78, 24.1 µM (inactive); in the assay on XF498, 28.8 µM (inactive); with HOP-18, 16.4 µM (inactive); in the assay on DMS-273 it was 19 µM (inactive). Further, the GI50 was 19.8 µM (inactive) in the assay with RXF 631 and 20.3 µM (inactive) in the assay with KM-20L2.
With `Clc1ccc2c(c1)C1C(CO2)C(c2ccccc2)=NN1c1ccccc1` (stereo not given), the GI50 in the assay on M19-MEL was 26.5 µM (inactive); with DLD-1, 35.1 µM (inactive); in the assay with DMS-114, 24.6 µM (inactive); in the assay on SNB-78, 29.9 µM (inactive); with XF498, 14.9 µM (inactive); in the assay on HOP-18, 1.07 µM (active). Further, the figures for the GI50 with DMS-273 and in the assay on KM-20L2 were 28.7 µM (inactive) and 79.6 µM (inactive), respectively.
For the compound `CN1/C(=N\c2ccccc2)S/C1=N/c1ccccc1`, the GI50 in the assay on M19-MEL is 21.8 µM (inactive); in the assay on DLD-1, 23.4 µM (inactive); in the assay on DMS-114 it was 23.6 µM (inactive); in the assay with SNB-78, > 100 µM (inactive); in the assay on XF498 it was 9.57 µM (inactive); in the assay on HOP-18 it was 69 µM (inactive). In addition, the GI50 with DMS-273 was 87.3 µM (inactive).
As to `O=C(CCC(=O)Nc1ccc(Cl)c(Cl)c1)CC(=O)c1ccc(F)cc1`, the GI50 in the assay on M19-MEL, in the assay with DLD-1, in the assay on DMS-114, in the assay on SNB-78, in the assay with HOP-18 and in the assay with DMS-273 was > 100 µM (inactive) throughout. In addition, the GI50 in the assay with RXF 631 and in the assay on KM-20L2 was > 100 µM (inactive) throughout.
For `CCCCCCCCCC1CC(=O)Oc2cccc(O)c21` (stereo not given), the GI50 with M19-MEL is 31.3 µM (inactive); in the assay with DLD-1, 27.9 µM (inactive); with DMS-114, 15.7 µM (inactive); with SNB-78, 42 µM (inactive); in the assay with XF498, 21.6 µM (inactive); in the assay with HOP-18 it was 51.4 µM (inactive). The GI50 in the assay with DMS-273 is 4.03 µM (inactive); with RXF 631, 0.617 µM (active); in the assay with KM-20L2, 31.3 µM (inactive).
Regarding `O=C1CCC(=O)N1Cc1ccccc1/N=[N+](\[O-])c1ccccc1CN1C(=O)CCC1=O`, the GI50 with M19-MEL, in the assay with DMS-114, in the assay on SNB-78, in the assay with XF498, in the assay with DMS-273 and in the assay on KM-20L2 was > 100 µM (inactive) throughout.
`COc1ccc(/C=C/CO)cc1OC`: the GI50 in the assay on M19-MEL, in the assay on DMS-114, in the assay with SNB-78, with DMS-273 and with KM-20L2 was > 100 µM (inactive) throughout.
`C=C1C2C[C@@H]3OC4CC5O[C@]6(CC5OC4C(C)C3OC(=O)CC3CC[C@@H]4OC5C7OC8C[C@](CCC9CC(=C)[C@H](CCC(C[C@H]1C)O2)O9)(OC7C4O3)O[C@@H]85)C[C@@H]1O[C@@]2(CC(C)[C@@H]3OC(CC(=O)CCO)C(O)C[C@@H]3O2)CC(C)[C@@H]1O6` (stereo not given in full): the GI50 with DLD-1 is < 0.001 µM (active); in the assay with SNB-78, 0.00157 µM (active); with XF498, < 0.001 µM (active); with DMS-273 it was < 0.001 µM (active); in the assay on KM-20L2, < 0.001 µM (active).
Consider `NCCOCCOCC(=O)O`, for which the GI50 in the assay with M19-MEL, in the assay with DMS-114, in the assay with SNB-78, with DMS-273 and in the assay on KM-20L2 was > 100 µM (inactive) in each case.
